In ChEMBL document CHEMBL4024706 (Eur J Med Chem, 2017):

What was measured:
[1] = test system: Tyrosine-protein kinase ABL1 (Homo sapiens), P00519 [F317I]; test: Inhibition of human phosphorylated ABL1 F317I mutant (S229 to K512 residues) expressed in mammalian expression system assessed as residual activity at 1 uM by Kinomescan method relative to control
[2] = test system: Tyrosine-protein kinase ABL1 (Homo sapiens), P00519 [H396P]; test: Inhibition of human non-phosphorylated ABL1 H396P mutant (S229 to K512 residues) expressed in mammalian expression system assessed as residual activity at 1 uM by Kinomescan method relative to control
[3] = target: Tyrosine-protein kinase CSK (Homo sapiens) (UniProt P41240); test: Inhibition of wild-type human full length CSK (M1 to L450 residues) expressed in bacterial expression system assessed as residual activity at 1 uM by Kinomescan method relative to control
[4] = target: Casein kinase I isoform delta (Homo sapiens) (UniProt P48730); test: Inhibition of wild-type human full length CSNK1D (M1 to K409 residues) expressed in bacterial expression system assessed as residual activity at 1 uM by Kinomescan method relative to control
[5] = target: Serine/threonine-protein kinase DCLK1 (Homo sapiens) (UniProt O15075); test: Inhibition of wild-type human partial length DCAMKL1 (L270 to A662 residues) expressed in mammalian expression system assessed as residual activity at 1 uM by Kinomescan method relative to control
[6] = target: Fibroblast growth factor receptor 3 (Homo sapiens) (UniProt P22607); test: Inhibition of wild-type human partial length FGFR3 (R442 to S771 residues) expressed in bacterial expression system assessed as residual activity at 1 uM by Kinomescan method relative to control
[7] = target: Homeodomain-interacting protein kinase 3 (Homo sapiens) (UniProt Q9H422); test: Inhibition of wild-type human partial length HIPK3 (M153 to N562 residues) expressed in mammalian expression system assessed as residual activity at 1 uM by Kinomescan method relative to control
[8] = target: Inhibitor of nuclear factor kappa-B kinase subunit alpha (Homo sapiens) (UniProt O15111); test: Inhibition of wild-type human full length IKK-alpha (M1 to E745 residues) expressed in mammalian expression system assessed as residual activity at 1 uM by Kinomescan method relative to control
[9] = target: Tyrosine-protein kinase Lck (Homo sapiens) (UniProt P06239); test: Inhibition of wild-type human partial length LCK (R207 to P509 residues) expressed in bacterial expression system assessed as residual activity at 1 uM by Kinomescan method relative to control
[10] = target: Dual specificity mitogen-activated protein kinase kinase 2 (Homo sapiens) (UniProt P36507); test: Inhibition of wild-type human full length MEK2 (M1 to V400 residues) expressed in mammalian expression system assessed as residual activity at 1 uM by Kinomescan method relative to control
[11] = target: Serine/threonine-protein kinase Nek4 (Homo sapiens) (UniProt P51957); test: Inhibition of wild-type human full length NEK4 (M1 to F841 residues) expressed in mammalian expression system assessed as residual activity at 1 uM by Kinomescan method relative to control
[12] = target: Serine/threonine-protein kinase NIM1 (Homo sapiens) (UniProt Q8IY84); test: Inhibition of wild-type human partial length NIM1 (Q44 to N355 residues) expressed in mammalian expression system assessed as residual activity at 1 uM by Kinomescan method relative to control
[13] = target: Mitogen-activated protein kinase 14 (Homo sapiens) (UniProt Q16539); test: Inhibition of wild-type human full length p38-alpha (M1 to S360 residues) expressed in bacterial expression system assessed as residual activity at 1 uM by Kinomescan method relative to control
[14] = target: 1-phosphatidylinositol 3-phosphate 5-kinase (Homo sapiens) (UniProt Q9Y2I7); test: Inhibition of wild-type human partial length PIKFYVE (F1512 to C2098 residues) expressed in mammalian expression system assessed as residual activity at 1 uM by Kinomescan method relative to control
[15] = target: Phosphatidylinositol 4-phosphate 5-kinase type-1 gamma (Homo sapiens) (UniProt O60331); test: Inhibition of wild-type human partial length PIP5K1C (M1 to T668 residues) expressed in mammalian expression system assessed as residual activity at 1 uM by Kinomescan method relative to control
[16] = target: Serine/threonine-protein kinase PLK3 (Homo sapiens) (UniProt Q9H4B4); test: Inhibition of wild-type human partial length PLK3 (A42 to L334 residues) expressed in mammalian expression system assessed as residual activity at 1 uM by Kinomescan method relative to control
[17] = target: Protein kinase C eta type (Homo sapiens) (UniProt P24723); test: Inhibition of wild-type human partial length PRKCH (S324 to P683 residues) expressed in bacterial expression system assessed as residual activity at 1 uM by Kinomescan method relative to control
[18] = target: Serine/threonine-protein kinase SIK3 (Homo sapiens) (UniProt Q9Y2K2); test: Inhibition of wild-type human partial length QSK (A90 to L395 residues) expressed in mammalian expression system assessed as residual activity at 1 uM by Kinomescan method relative to control
[19] = target: Ribosomal protein S6 kinase alpha-5 (Homo sapiens) (UniProt O75582); test: Inhibition of wild-type human partial length C-terminal RPS6KA5 kinase domain 2 (V390 to T718 residues) expressed in bacterial expression system assessed as residual activity at 1 uM by Kinomescan method relative to control
[20] = target: Tyrosine-protein kinase Srms (Homo sapiens) (UniProt Q9H3Y6); test: Inhibition of wild-type human partial length SRMS (L208 to P488 residues) expressed in mammalian expression system assessed as residual activity at 1 uM by Kinomescan method relative to control
[21] = target: SRSF protein kinase 1 (Homo sapiens) (UniProt Q96SB4); test: Inhibition of wild-type human full length SRPK1 (M1 to S655 residues) expressed in bacterial expression system assessed as residual activity at 1 uM by Kinomescan method relative to control
[22] = target: TGF-beta receptor type-2 (Homo sapiens) (UniProt P37173); test: Inhibition of wild-type human partial length TGFBR2 (I218 to K567 residues) expressed in bacterial expression system assessed as residual activity at 1 uM by Kinomescan method relative to control
[23] = target: Non-receptor tyrosine-protein kinase TYK2 (Homo sapiens) (UniProt P29597); test: Inhibition of wild-type human partial length TYK2 JH1 catalytic domain (V877 to C1187 residues) expressed in mammalian expression system assessed as residual activity at 1 uM by Kinomescan method relative to control
[24] = target: Serine/threonine-protein kinase ULK3 (Homo sapiens) (UniProt Q6PHR2); test: Inhibition of wild-type human partial length ULK3 (M1 to Q290 residues) expressed in mammalian expression system assessed as residual activity at 1 uM by Kinomescan method relative to control
[25] = target: Mitogen-activated protein kinase kinase kinase 20 (Homo sapiens) (UniProt Q9NYL2); test: Inhibition of wild-type human partial length ZAK (M1 to L331 residues) expressed in bacterial expression system assessed as residual activity at 1 uM by Kinomescan method relative to control
Chain of Mitogen-activated protein kinase kinase kinase 20 (Homo sapiens) (Q9NYL2 2-800 limits assumed): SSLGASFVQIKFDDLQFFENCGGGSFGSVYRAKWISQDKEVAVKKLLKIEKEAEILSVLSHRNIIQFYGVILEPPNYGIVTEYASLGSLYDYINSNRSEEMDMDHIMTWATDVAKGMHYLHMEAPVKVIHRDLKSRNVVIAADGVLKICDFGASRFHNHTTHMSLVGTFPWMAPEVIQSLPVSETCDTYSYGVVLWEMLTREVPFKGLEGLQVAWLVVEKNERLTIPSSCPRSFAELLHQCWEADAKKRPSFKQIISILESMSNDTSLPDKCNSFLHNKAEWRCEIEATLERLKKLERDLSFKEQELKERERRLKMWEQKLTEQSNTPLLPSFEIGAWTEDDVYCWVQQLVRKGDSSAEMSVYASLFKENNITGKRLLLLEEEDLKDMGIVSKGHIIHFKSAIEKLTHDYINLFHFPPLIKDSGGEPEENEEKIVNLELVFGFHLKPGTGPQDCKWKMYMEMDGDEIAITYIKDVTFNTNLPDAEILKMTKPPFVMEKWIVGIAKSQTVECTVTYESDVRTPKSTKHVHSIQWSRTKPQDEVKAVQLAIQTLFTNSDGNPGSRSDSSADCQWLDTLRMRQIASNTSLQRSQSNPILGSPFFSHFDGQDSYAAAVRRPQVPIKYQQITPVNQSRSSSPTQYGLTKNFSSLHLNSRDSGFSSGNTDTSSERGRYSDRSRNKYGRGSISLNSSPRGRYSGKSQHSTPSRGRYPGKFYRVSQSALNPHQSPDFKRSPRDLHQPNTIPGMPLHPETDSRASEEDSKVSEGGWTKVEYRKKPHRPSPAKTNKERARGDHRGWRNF

Chain of Dual specificity mitogen-activated protein kinase kinase 2 (Homo sapiens) (P36507 whole entry, the tested form may be a part): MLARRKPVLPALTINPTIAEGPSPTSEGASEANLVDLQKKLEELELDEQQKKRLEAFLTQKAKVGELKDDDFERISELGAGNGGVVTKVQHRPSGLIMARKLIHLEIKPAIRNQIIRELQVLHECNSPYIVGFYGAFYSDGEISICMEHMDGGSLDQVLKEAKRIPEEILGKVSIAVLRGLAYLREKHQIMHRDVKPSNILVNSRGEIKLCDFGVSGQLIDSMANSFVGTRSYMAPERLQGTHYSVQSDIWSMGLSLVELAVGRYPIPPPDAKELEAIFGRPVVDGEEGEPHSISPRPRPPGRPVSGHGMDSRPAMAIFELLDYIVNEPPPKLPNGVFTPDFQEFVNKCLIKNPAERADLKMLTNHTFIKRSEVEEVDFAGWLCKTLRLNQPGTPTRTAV
Chain of 1-phosphatidylinositol 3-phosphate 5-kinase (Homo sapiens) (Q9Y2I7 whole entry, the tested form may be a part): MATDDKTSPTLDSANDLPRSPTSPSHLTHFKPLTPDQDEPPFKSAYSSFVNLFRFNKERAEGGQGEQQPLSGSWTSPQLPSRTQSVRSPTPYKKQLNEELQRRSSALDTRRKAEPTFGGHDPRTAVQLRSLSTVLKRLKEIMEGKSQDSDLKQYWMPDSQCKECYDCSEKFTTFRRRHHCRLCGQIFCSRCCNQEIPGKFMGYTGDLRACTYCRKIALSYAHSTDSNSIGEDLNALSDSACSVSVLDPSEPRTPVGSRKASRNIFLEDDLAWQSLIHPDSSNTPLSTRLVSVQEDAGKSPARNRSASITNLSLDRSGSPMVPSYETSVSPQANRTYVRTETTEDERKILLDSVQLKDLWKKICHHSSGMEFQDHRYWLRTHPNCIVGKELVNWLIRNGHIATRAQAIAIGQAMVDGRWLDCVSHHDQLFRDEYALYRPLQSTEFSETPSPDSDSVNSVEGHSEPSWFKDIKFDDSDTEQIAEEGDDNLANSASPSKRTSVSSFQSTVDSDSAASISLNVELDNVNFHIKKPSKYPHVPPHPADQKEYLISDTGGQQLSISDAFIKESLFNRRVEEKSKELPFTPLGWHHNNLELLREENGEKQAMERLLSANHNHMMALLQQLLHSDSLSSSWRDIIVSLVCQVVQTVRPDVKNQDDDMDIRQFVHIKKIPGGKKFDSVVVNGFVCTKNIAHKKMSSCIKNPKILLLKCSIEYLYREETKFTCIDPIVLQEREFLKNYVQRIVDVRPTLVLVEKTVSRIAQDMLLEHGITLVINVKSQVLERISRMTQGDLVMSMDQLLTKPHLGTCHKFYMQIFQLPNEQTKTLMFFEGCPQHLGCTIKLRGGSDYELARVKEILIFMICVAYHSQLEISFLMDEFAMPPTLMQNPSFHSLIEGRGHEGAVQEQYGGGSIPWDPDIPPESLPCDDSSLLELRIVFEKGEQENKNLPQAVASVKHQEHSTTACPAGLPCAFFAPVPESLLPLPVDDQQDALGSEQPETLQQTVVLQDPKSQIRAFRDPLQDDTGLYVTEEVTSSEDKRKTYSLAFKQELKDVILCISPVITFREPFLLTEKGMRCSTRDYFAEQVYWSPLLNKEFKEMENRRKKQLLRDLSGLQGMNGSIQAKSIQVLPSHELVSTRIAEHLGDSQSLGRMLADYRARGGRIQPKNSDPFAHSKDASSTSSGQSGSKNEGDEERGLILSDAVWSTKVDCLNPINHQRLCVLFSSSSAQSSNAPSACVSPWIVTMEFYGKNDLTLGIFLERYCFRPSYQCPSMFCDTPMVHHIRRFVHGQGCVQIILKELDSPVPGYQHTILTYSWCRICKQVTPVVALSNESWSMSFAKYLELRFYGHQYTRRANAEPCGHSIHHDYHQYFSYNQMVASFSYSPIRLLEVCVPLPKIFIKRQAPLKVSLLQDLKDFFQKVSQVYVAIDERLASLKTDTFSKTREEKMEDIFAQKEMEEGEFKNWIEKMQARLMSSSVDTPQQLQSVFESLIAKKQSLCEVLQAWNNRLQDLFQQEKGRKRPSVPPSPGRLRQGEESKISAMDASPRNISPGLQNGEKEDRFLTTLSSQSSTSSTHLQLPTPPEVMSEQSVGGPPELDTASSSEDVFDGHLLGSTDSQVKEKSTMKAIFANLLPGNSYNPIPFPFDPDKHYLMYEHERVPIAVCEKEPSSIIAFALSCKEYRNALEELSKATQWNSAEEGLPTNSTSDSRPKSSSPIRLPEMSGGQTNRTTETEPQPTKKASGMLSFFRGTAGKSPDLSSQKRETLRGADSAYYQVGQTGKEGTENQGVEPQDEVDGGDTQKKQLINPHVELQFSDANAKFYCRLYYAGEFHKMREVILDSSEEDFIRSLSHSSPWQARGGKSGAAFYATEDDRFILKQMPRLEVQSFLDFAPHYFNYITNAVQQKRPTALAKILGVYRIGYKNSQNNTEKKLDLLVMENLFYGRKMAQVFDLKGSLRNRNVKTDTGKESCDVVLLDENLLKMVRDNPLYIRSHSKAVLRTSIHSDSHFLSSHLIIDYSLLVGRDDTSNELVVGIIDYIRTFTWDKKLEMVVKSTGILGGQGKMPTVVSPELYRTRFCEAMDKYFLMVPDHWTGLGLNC
Chain of Tyrosine-protein kinase Srms (Homo sapiens) (Q9H3Y6 whole entry, the tested form may be a part): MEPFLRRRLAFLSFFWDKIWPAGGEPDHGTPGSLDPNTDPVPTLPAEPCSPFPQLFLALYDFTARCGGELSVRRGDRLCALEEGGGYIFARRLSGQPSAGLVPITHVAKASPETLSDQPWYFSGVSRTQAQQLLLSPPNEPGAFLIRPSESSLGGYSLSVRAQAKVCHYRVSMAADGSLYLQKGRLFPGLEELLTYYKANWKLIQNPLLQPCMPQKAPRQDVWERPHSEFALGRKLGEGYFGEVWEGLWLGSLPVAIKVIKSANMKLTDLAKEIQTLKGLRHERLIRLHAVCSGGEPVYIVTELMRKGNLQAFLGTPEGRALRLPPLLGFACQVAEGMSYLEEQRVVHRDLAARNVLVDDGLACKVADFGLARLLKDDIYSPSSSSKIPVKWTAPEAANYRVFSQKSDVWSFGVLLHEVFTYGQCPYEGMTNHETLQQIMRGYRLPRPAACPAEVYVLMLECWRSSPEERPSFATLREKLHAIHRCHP
Chain of Phosphatidylinositol 4-phosphate 5-kinase type-1 gamma (Homo sapiens) (O60331 whole entry, the tested form may be a part): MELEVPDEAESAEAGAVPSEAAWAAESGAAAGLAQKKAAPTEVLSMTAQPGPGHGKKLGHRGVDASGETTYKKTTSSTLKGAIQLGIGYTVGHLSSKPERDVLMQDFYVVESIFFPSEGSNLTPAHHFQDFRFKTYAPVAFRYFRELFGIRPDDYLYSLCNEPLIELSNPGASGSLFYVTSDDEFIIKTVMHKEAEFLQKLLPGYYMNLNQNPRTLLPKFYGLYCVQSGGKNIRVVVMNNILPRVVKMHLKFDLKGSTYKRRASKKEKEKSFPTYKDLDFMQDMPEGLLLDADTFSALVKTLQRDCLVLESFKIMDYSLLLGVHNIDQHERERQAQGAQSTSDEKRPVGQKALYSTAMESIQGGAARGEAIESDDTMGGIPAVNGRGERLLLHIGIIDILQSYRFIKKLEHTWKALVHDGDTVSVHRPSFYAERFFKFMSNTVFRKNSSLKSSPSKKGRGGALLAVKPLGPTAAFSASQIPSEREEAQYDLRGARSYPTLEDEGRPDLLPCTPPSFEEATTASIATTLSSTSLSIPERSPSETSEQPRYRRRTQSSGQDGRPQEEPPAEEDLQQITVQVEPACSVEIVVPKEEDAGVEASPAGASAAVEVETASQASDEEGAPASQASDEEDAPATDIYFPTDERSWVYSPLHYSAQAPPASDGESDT
Chain of Serine/threonine-protein kinase PLK3 (Homo sapiens) (Q9H4B4 whole entry, looked up, the tested form may be a part): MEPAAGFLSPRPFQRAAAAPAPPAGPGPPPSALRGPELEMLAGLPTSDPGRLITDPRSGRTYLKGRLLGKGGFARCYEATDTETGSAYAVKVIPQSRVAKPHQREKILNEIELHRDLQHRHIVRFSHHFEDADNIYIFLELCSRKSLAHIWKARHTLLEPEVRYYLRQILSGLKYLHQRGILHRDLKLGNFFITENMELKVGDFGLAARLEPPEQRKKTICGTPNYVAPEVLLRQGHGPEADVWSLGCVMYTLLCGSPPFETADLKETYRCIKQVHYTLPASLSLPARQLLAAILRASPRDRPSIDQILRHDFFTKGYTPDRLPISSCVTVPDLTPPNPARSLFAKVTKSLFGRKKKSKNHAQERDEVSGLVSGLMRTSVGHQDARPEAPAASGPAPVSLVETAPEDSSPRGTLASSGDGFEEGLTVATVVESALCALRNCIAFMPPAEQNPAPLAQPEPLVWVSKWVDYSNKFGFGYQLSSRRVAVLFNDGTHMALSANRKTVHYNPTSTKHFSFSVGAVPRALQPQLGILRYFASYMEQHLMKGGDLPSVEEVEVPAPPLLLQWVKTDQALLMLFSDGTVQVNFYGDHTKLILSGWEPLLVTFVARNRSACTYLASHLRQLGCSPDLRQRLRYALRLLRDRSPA

C=CC(=O)Nc1cc(Nc2cc(-c3cccc(NC(=O)c4ccc(C(C)(C)C)cc4)c3C)cn(C)c2=O)ccc1C(=O)N1CCOCC1
Activity [1]: 97%
Activity [2]: 100%
Activity [3]: 100%
Activity [4]: 99%
Activity [5]: 95%
Activity [6]: 89%
Activity [7]: 100%
Activity [8]: 100%
Activity [9]: 97%
Activity [10]: 100%
Activity [11]: 100%
Activity [12]: 100%
Activity [13]: 100%
Activity [14]: 96%
Activity [15]: 100%
Activity [16]: 95%
Activity [17]: 100%
Activity [18]: 78%
Activity [19]: 100%
Activity [20]: 100%
Activity [21]: 100%
Activity [22]: 90%
Activity [23]: 74%
Activity [24]: 99%
Activity [25]: 94%
